Consider 4 molecules from publication PMC12501849, “Design, synthesis and evaluation of arylpurine-based sinefungin mimetics as zika virus methyltransferase inhibitors” (RSC Advances, 2025).

The nature of series [1]: Cytotoxicity in non-infected VeroE6 cells. Particulars: African green monkey, non-infected, 50% cytotoxic concentration. It is filed as cell-based, African green monkey. As to the method:
(§1) Assessment of the antiviral activity against ZIKV in VeroE6 cells (African green monkey kidney cells; Vero 76, clone E6; ATCC: Cat# CRL-1586) was done as previously described.[35] The antiviral assays in the neuroblastoma SH-SY5Y cells (CRL-2266; ATCC) were conducted as follows: SH-SY5Y cells were seeded in assay medium (MEM supplemented with 2% fetal bovine serum, 2 mM L-glutamine and 0.075% sodium bicarbonate; all from Thermo Fisher Scientific) at a density of 15 000 cells/well in 96-well plates. Cells were incubated overnight at 37 °C and 5% CO2. The next day, a serial dilution of the compounds was added to the cells, followed by inoculation of the cells with ZIKV MR766 (MOI = 0.01). Following a 7-day incubation at 37 °C and 5% CO2, ZIKV-induced cytopathic effect was determined by means of the MTS readout method, analogous to the assay with the VeroE6 cells.[35] The 50% effective concentration (the compound concentration that is required to inhibit virus-induced CPE by 50%; EC50) and the 50% cytotoxic concentration (i.e. the compound concentration that is required to inhibit the cell growth by 50%; CC50) was determined using logarithmic interpolation.

A further series concerns VeroE6 cells. The series is described as follows: Cytotoxicity in non-infected VeroE6 cells. Type of series: cell-based, African green monkey. As to the method:
as §1

Series [2] deals with T1, ZIKV MTase (Zika virus, UniProt A0A024B7W1).
T1 construct: the ZIKV NS5 MTase (aa 4-278) domain were synthesized (Genscript); His6 (N); made in house; host or cells: Escherichia coli T7 Express Iq
Description: Filter binding assay (FBA), ZIKV 2′-O-MTase activity. Type of series: biochemical. The settings on record: for inhibition at 50 µM: 2′-O-MTase activity, compound at 50 μM, read-out: Percentage of inhibition of ZIKV MTase; for Effect on 2′-O-MTase activity of ZIKV (in words): tested at 50 μM. As to the method: (§2) The synthesized arylpurines were evaluated for their inhibitory activity against the 2′-O-MTase activity of ZIKV and DENV3 MTases by quantification of [^3H]-methyl transfer from the [^3H]-SAM on short synthetic capped RNA (GpppAC4), by using a filter binding assay (FBA).[13,33] The universal methyltransferase inhibitor sinefungin was included as a positive control (Table 1), whose IC50 value against ZIKV MTase has already been reported using a similar assay.[13] We assessed MTase inhibition by testing the synthesized compounds at a concentration of 50 μM.
(§3) Proteins were produced and purified as previously described.[13] Briefly, the coding sequence of ZIKV NS5 (aa 4-903) and the ZIKV NS5 MTase (aa 4-278) domain were synthesized (Genscript) based on the sequence of the ZIKV strain H/PF/2013 (GenBank accession no. KJ776791.2) and then cloned into a pQE30 (Qiagen) plasmid with an N-terminal His6 tag. The MTase domains (aa 4-278 and aa 1-264) were produced in Escherichia coli T7 Express Iq (New England BioLabs). Cells were grown in Terrific Broth at 37 °C until the optical density at 600 nm (OD600) reached 0.6. Protein expression was then induced by 0.5 mM IPTG (isopropyl-β-D-thiogalactopyranoside) at 17 °C overnight. Bacteria were harvested by centrifugation. The bacterial pellets from a 2-liter bacterial culture were resuspended in 100 ml lysis buffer (50 mM Tris–HCl [pH 8], 300 mM NaCl, 5% glycerol, 0.1% Triton, 10 μg per ml DNase I, 2 tablets of EDTA-free antiprotease cocktail [Roche], 0.25 mg per ml lysozyme). After 30 min of incubation at 4 °C, cells were sonicated and clarified by centrifugation prior to immobilized metal affinity chromatography (IMAC) purification on a 5-mL His prep column (GE Healthcare), with elution in 50 mM Tris–HCl, 300 mM NaCl, and 250 mM imidazole (pH 8.0). The eluted protein was then loaded on a 16/60 Superdex 200 (GE Healthcare) equilibrated in a mixture of 10 mM HEPES, 500 mM NaCl, glycerol 5%, and 1 mM dithiothreitol (DTT [pH 7.5]).
(§4) The FBA MTase assay was carried out in a reaction mixture [40 mM Tris–HCl (pH 8.0), 1 mM DTT, 1.9 μM SAM, and 0.1 μM ^3H-SAM (PerkinElmer)] in the presence of 0.7 μM GpppAC4 synthetic RNA and the MTase (500 nM), according to the method previously described.[39] Briefly, the MTase was first mixed with the compound suspended in DMSO (5% final DMSO) before the addition of RNA substrate and SAM and then incubated at 30 °C. Reactions mixtures were stopped after 30 min by their 10-fold dilution in ice-cold water. Samples were transferred to diethylaminoethyl (DEAE) filtermat (PerkinElmer) using a Filtermat Harvester (Packard Instruments). The RNA-retaining mats were washed twice with 10 mM ammonium formate pH 8.0, twice with water and once with ethanol. They were soaked with scintillation fluid (PerkinElmer), and ^3H-methyl transfer to the RNA substrates was determined using a Wallac MicroBeta TriLux liquid scintillation counter (PerkinElmer).

Series [3] can be described thus: Cytotoxicity in non-infected SH-SY5Y cells. Type of series: cell-based. The settings on record: human, SH-SY5Y neuroblastoma cells, 50% cytotoxic concentration. As to the method: as §1
In series [4] the target is T2, DENV3 MTase (Dengue virus type 3, UniProt P27915).
T2 construct: the MTase activity is located at the N-terminal of the viral NS5 protein; made in house
Description: Filter binding assay (FBA), DENV3 2′-O-MTase activity. It is filed as biochemical. The settings on record: for inhibition at 50 µM: 2′-O-MTase activity, compound at 50 μM, read-out: Percentage of inhibition of DENV3 MTase; for Effect on 2′-O-MTase activity of DENV3 (in words): tested at 50 μM. On the procedure: as §2, §3, §4

In the next series the test system is ZIKV MR766. The series is described as follows: Antiviral assay against ZIKV in SH-SY5Y cells (CPE, MTS readout). It is filed as cell-based, zika virus. Particulars: for EC50: Zika virus, 168 h, SH-SY5Y cells, ZIKV MR766, MOI 0.01, 7-day incubation. As to the method: (§5) These compounds were next evaluated for their antiviral effect on ZIKV replication in Vero E6 and SH-SY5Y cells. 7-Deaza-2′-C-methyladenosine (7DMA), a viral polymerase inhibitor,[35] was included as a positive control.
Besides the standard assays in VeroE6 cells, the compounds were also tested in SH-SY5Y cells. […] Thus, they function as a relevant neuronal cell-based model of ZIKV infection.[38]
as §1

The next series deals with ZIKV. The series is described as follows: Antiviral assay against ZIKV in VeroE6 cells (CPE, MTS readout). It is filed as cell-based, zika virus. The settings on record: for EC50: concentration that protects 50% of the cells from virus-induced cytopathic effect; for Antiviral activity against ZIKV (in words): cell-based assay. On the procedure:
as §5, §1
For orientation: Damage to the host cells serves as the signal in cytopathic effect assays.

Series [5] can be described thus: Stability towards spontaneous cyclization in PBS : DMSO followed by HPLC. Type of series: physicochemical. The settings on record: PBS : DMSO (95 : 5), HPLC over a 24-hour period. As to the method: Then, compound 28 was treated with TFA at 70 °C to remove the tert-butyl ester and the p-methoxybenzyl group. Analysis of the reaction by HPLC/MS after 1 h indicated a mixture of two compounds with m/z = 695 and m/z = 575, that might correspond to cyclized products with and without the p-methoxybenzyl group at position 6 (see Fig. S3 at the SI). […] In exploring alternative methods for removing the PMB group, we came across a report by Sako et al., which described the oxidative debenzylation of 6-N-benzyladenosines under neutral pH conditions.[32] Since our compounds are more lipophilic than the nucleosides described by […], we changed the PBS : CH3CN ratio from 2 : 1, as described, to 1 : 1 to favor the solubility of our compounds. Additionally, we used microwave irradiation to shorten the reaction times. Thus, treatment of 27 with […] in PBS : CH3CN (1 : 1) at 80 °C for 45 min under MW irradiation led to the removal of the p-methoxybenzyl group, as detected by HPLC/MS. Further treatment of the reaction product with piperidine afforded 29 (25% yield over the 2 steps). A similar reaction sequence applied to 28 led to compound 30 (21% yield). […] Finally, treatment of 29 and 30 with TFA in DCM at rt afforded compounds 31 and 32 in 73% and 62% yields, respectively. To rule out the possibility of spontaneous cyclization following removal of both protecting groups from the amino acid, compounds 21, 31 and 32 were dissolved in a PBS : DMSO (95 : 5) mixture.

Series [6] has as its target T1, ZIKV MTase. Also noted: method as in PMID 28031359. Particulars: cited from earlier work.
On the set-up of series [7]: method as in PMID 30170321. The settings on record: cited from earlier work.
For series [8], the target named is T2, DENV3 MTase. Also noted: method as in PMID 28031359. The settings on record: cited from earlier work.
Setting [9] is: Zika virus, Vero C1008, VeroE6 cells.

Entries after “also recorded” stand apart in the source; their conditions may differ.

As a reminder, the CC50 is the concentration that lowers cell viability or growth by half. Low values mean harm at low concentration, high ones better tolerance by the cells. What is called inhibition is the change of the read-out against control, counted positive when it falls. For orientation: EC50 means the concentration giving half of the maximal effect. A high value points to lower potency in that assay. For orientation: IC50 means the midpoint of a concentration-inhibition curve.

T2 sequence (P27915 2492-2753): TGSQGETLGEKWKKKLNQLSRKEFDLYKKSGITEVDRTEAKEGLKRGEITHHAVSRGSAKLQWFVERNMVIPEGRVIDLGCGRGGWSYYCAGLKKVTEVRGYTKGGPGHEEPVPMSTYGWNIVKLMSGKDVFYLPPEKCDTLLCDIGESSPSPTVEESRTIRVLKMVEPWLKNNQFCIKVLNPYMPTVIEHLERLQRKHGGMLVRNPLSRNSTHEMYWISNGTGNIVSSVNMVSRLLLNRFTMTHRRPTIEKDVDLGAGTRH
T1 sequence (A0A024B7W1 2524-2798): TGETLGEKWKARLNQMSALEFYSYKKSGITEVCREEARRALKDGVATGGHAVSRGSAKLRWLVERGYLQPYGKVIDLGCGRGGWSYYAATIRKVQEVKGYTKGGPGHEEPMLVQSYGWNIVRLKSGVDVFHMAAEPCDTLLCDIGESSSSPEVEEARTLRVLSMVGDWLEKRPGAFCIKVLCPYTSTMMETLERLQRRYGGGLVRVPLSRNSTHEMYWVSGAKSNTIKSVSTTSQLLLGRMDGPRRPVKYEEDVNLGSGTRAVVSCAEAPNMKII

Turning to `Cc1ncnc2c1ccn2-c1cccc(N(CC[C@H](N)C(N)=O)CCC(C)(C)C)c1` [Compound 18, (S)-2-Amino-4-((3,3-dimethylbutyl)(3-(4-methyl-7H-pyrrolo[2,3-d]pyrimidin-7-yl)phenyl)amino) butanamide], the midpoint of cytotoxicity in [1], the CC50, lay at 66.2 ± 3.9 µM. Also, the “CC50 relative to EC50 (fold higher)” value with VeroE6 cells is on record as around 3 fold. The inhibition at 50 µM on ZIKV MTase [2] was found to be 10.8%; at DENV3 MTase [4] it was 10.1%. Moreover, the “Effect on 2′-O-MTase activity of ZIKV (in words)” value (“Effect … of ZIKV (in words)” below) on ZIKV MTase [2] is reported as “inhibited; also recorded: modest inhibition”. Further, the CC50 at 7 days in [3] amounted to 61 µM. For the same molecule, the “Effect on 2′-O-MTase activity of DENV3 (in words)” value (“Effect … of DENV3 (in words)” for short) on DENV3 MTase [4] was “modest inhibition”. The EC50 is above 100 µM in the series with ZIKV MR766, 27.2 ± 0.2 µM in the series with ZIKV (VeroE6 cells) and 27 µM in the series on ZIKV (setting [9]). Further, in the series on ZIKV MR766 (neuroblastoma SH-SY5Y cells), the “Antiviral activity against ZIKV in SH-SY5Y cells (in words)” value is on record as “not confirmed”. The IC50 in the series on ZIKV (Zika virus, Vero C1008, Vero E6 cells, read-out: IC50 (antiviral activity in cell culture)) stood at 27.2 ± 0.2 µM. The “Antiviral activity against ZIKV (in words)” value in the series on ZIKV is given as “modest antiviral activity”.

The molecule `Nc1ncnc2c1ncn2-c1cccc(NC(=O)C[C@H](N)C(=O)O)c1` [Compound 31, N ^4-(3-(6-Amino-9H-purin-9-yl)phenyl)-L-asparagine] gave a CC50 in series [1] above 100 µM. In addition, the inhibition at 50 µM at ZIKV MTase [2] and at DENV3 MTase [4] was around 20% in each case. For the same molecule, the “Effect … of ZIKV (in words)” value on ZIKV MTase [2] is on record as “inhibited; also recorded: some inhibition”. Besides, the “Stability (no spontaneous cyclization)” value in series [5] was “remained intact”. In series [3], this molecule returned a CC50 at 7 days above 100 µM. Further, the “Effect … of DENV3 (in words)” value on DENV3 MTase [4] is “some inhibition”. In addition, the EC50 in the series with ZIKV MR766 and in the series on ZIKV (setting [9]) was above 100 µM in each case. The “Antiviral activity against ZIKV (in words)” value in the series on ZIKV is “no antiviral activity”.

In the case of `COc1ccc(NC(=O)C[C@H](N)C(=O)O)cc1-n1cnc2c(N)ncnc21` [Compound 32, N ^4-(3-(6-Amino-9H-purin-9-yl)-4-methoxyphenyl)-L-asparagine], the CC50 in [1] is above 100 µM. Moreover, the inhibition at 50 µM on ZIKV MTase [2] and on DENV3 MTase [4] was 0% each time. On ZIKV MTase [2], the “Effect … of ZIKV (in words)” value is reported as “no effect”. Further, the “Stability (no spontaneous cyclization)” value in [5] is “remained intact”. In series [3], this molecule returned a 50% cytotoxic concentration (CC50) at 7 days above 100 µM. Also, the “Effect … of DENV3 (in words)” value on DENV3 MTase [4] is recorded as “no effect”. Also, the EC50 in the series on ZIKV MR766 and in the series with ZIKV (setting [9]) was above 100 µM throughout.

As for `Nc1ncnc2c1ncn2[C@@H]1O[C@H](C[C@@H](N)CC[C@H](N)C(=O)O)[C@@H](O)[C@H]1O` [Sinefungin], the “ZIKV MTase inhibition (in words)” value on ZIKV MTase [6] is on record as “potent”. Also, the figures for the inhibition at 50 µM on ZIKV MTase [2] and on DENV3 MTase [4] were 97.9% and 96.8%, respectively. In series [7], the “Antiviral activity in cell culture (in words)” value is “lack of antiviral activity”. Besides, at DENV3 MTase [8], the “DENV MTase inhibition (in words)” value is on record as “potent”.
